Results on three molecules are retold here after patent US20040209859A1, “Fused cycloalkyl amides and acids and their therapeutic applications” (priority 2002, published 2004).

`CC1(C)[C@@H]2CC3[C@H](C(=O)O)[C@@]3(C)C[C@@H]21` (stereo partly drawn) (hydrate or solvate) [Example 1, (1S,3S,4S,7R)-3,8,8-trimethyltricyclo[5.1.0.0^3,5]octane-4-carboxylic acid] returned a melting point of 86 °C.
With `CC1(C)[C@@H]2CC3[C@H](C(=O)NCC(N)=O)[C@@]3(C)C[C@@H]21` (stereo partly drawn) [Example 4, (1S,3S,4S,7R)-N-(2-amino-2-oxoethyl)-3,8,8-trimethyltricyclo [5.1.0.0^3,5]octane-4-carboxamide] the figure was 169.2 to 169.7 °C; with `CC1(C)[C@@H]2CC3[C@H](C(N)=O)[C@@]3(C)C[C@@H]21` (stereo partly drawn) [Example 3, (1S,3S,4S,7R)-3,8,8-trimethyltricyclo[5.1.0.0^3,5]octane-4-carboxamide], 121.5 to 122.5 °C.
